pIC50: −log10 of the molar value. Values joined by “and” are separate entries in the source; they are usually repeats but may differ in a detail not shown here. Identical values can stand only once. Like-named read-outs stand apart in the source and are kept apart here. Marks after values point to notes of the source that are not given here.
Assays:
MEF PTEN null = assay: Migration Assay, MEF PTEN null; assay type: cell-based, mouse
[1] = test system: human non-small cell lung cancer cells (H1299); assay: MTT Assay for Determining Toxicity, H1299; assay type: cell-based; conditions: read-out: Viability IC50 H1299
MEF PTEN wt = assay: Migration Assay, MEF PTEN wt; assay type: cell-based, mouse
PTEN [2] = target: T1, PTEN (Homo sapiens, UniProt P60484); assay: PTEN Inhibition Assay: IC50 Determinations; assay type: biochemical
T1 sequence (P60484 whole entry, species assumed): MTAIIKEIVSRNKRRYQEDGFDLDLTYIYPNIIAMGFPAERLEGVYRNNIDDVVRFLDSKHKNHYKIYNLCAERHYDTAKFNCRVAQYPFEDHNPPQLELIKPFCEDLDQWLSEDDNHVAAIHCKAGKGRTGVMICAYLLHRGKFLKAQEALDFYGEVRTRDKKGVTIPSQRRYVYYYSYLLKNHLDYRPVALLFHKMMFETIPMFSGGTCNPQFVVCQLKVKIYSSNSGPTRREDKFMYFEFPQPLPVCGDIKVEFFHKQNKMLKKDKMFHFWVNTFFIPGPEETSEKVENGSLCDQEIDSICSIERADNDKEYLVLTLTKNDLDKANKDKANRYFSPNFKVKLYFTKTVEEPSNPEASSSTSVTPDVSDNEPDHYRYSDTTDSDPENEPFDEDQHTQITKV

PTP1B = target: T2, PTP1B (Homo sapiens, UniProt P18031); assay: PTP1B Inhibition Assay: IC50 Determinations; assay type: biochemical
T2 sequence (P18031 1-435): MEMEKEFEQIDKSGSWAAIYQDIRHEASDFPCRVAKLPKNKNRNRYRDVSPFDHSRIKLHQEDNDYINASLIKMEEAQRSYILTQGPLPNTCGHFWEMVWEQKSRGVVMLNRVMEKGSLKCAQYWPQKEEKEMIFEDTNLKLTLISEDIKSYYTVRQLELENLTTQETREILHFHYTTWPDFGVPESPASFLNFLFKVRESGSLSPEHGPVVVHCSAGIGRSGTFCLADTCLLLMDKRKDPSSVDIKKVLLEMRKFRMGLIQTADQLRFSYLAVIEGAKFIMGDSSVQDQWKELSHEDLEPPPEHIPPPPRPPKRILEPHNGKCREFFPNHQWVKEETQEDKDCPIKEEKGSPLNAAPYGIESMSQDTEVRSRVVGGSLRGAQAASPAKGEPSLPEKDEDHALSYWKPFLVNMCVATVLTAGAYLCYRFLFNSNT

[3] = test system: human brain endothelial cells (HBEC); assay: MTT Assay for Determining Toxicity, HBEC; assay type: cell-based; conditions: Endothelial cell, read-out: Viability IC50 HBEC
[4] = test system: HBEC (Human Brain Endothelial Cells); assay: Wound Healing Assay; assay type: cell-based
GST-PTEN fusion protein = GST-PTEN fusion protein (Homo sapiens, UniProt P60484); assay: Immobilized PTEN; assay type: biochemical; conditions: PLV substrate
Chain of GST-PTEN fusion protein (P60484 whole entry, the tested form may be a part): as the sequence (P60484 whole entry, species assumed) above
Procedure: In the PTEN inhibition assay, to exclude the possibility that PTEN inhibitor candidates interact with the unilameller PIP3 lipid vesicle (PLV) to block PTEN and artificially mimic PTEN inhibition, PTEN was bound to a solid support and treated with inhibitor, the inhibitor washed away and then the capability of the bound PTEN to dephosphorylate PLV was determined. […] The gel was centrifuged, washed 3 times and centrifuged again. […] Then a 100 ul portion of malachite green buffer (Upstate, Charlottesville, Va.) was added to develop the color in the dark at room temperature. […] Optical density measurements were converted to nanomoles of phosphate detected using a phosphate-malachite green standard calibration curve.

[5] = test system: human prostate cancer cells (PC-3); assay: MTT Assay for Determining Toxicity, PC-3; assay type: cell-based; conditions: read-out: Viability IC50 PC-3
mouse aortic ring = assay: In Vitro Aortic Ring Angiogenesis Assay; assay type: cell-based; conditions: 120 h
U87MG PTEN wt = assay type: cell-based
PTEN [6] = target: T1, PTEN; assay: PTEN Inhibition Assay: General Screening; assay type: biochemical; conditions: read-out: % Inhibition @ 250 uM
RAC1-GTP = assay type: cell-based, mouse
U87MG PTEN null = assay type: cell-based
[7] = MTT, serum-free, 2 hours with compound

Q: `O=C1C(=O)c2cccnc2-c2ncccc21` [SF1720-000, 1,10-phenanthroline-5,6-dione] was tested. Which “migration number, Average” value (MEF PTEN null; 125 uM, Table 4) did it give?
A: Its value is 36.50.

Q: What about the “migration number, Average” value (MEF PTEN null; 250 uM, Table 4) of the same compound?
A: Its value is 37.30.

Q: What about the pIC50 ([1]; NCI-H1299, MTT, serum-free, 2 hours with compound) of the same compound?
A: Its pIC50 is over 6.00.

Q: What about the “migration number, Average” value (MEF PTEN wt; 125 uM, Table 4) of the same compound?
A: The value was 18.20.

Q: And the “migration number, Average” value (MEF PTEN wt; 250 uM, Table 4)?
A: The value was 11.90.

Q: What about the pIC50 (PTEN [2]; Table 1, read-out: PTEN Inhibition IC50) of the same compound?
A: Its pIC50 is 5.30.

Q: And the pIC50 (PTEN [2]; Table 25, read-out: PTEN IC50)?
A: The pIC50 was 5.30.

Q: And the pIC50 (PTEN [2]; Table 29, read-out: PTEN IC50)?
A: Its pIC50 is 5.30.

Q: And the “selective inhibition for PTEN over PTP1B” value (PTEN [2]; ratio of IC50's)?
A: The value was “more than 50 fold”.

Q: And the pIC50 (PTP1B; Table 29, read-out: PTP1B IC50)?
A: Its pIC50 is under 3.60.

Q: What about the pIC50 [3, 7] of the same compound?
A: Its pIC50 is 6.00.

Q: And the “distance the cells have grown out” value ([4]; 10 nM, 2 hrs)?
A: Its value is 0.03* millimeters.

Q: And the “distance the cells have grown out” value ([4]; 10 nM, 4 hrs)?
A: Its value is 0.04667 millimeters.

Q: What about the “distance the cells have grown out” value ([4]; 10 nM, 6 hrs) of the same compound?
A: Its value is 0.08* millimeters.

Q: And the “distance the cells have grown out” value ([4]; 10 nM, 24 hrs)?
A: Its value is 0.155* millimeters.

Q: What about the “distance the cells have grown out” value ([4]; 50 nM, 2 hrs) of the same compound?
A: The value was 0.03667 millimeters.

Q: And the “distance the cells have grown out” value ([4]; 50 nM, 4 hrs)?
A: The value was 0.04667 millimeters.

Q: And the “distance the cells have grown out” value ([4]; 50 nM, 6 hrs)?
A: Its value is 0.05667* millimeters.

Q: What about the “distance the cells have grown out” value ([4]; 50 nM, 24 hrs) of the same compound?
A: Its value is 0.1583* millimeters.

Q: What about the “distance the wound edge had moved forward” value ([4]; 0.111 uM, 2 hrs) of the same compound?
A: The value was 0.04333 mm.

Q: What about the “distance the wound edge had moved forward” value ([4]; 0.111 uM, 4 hrs) of the same compound?
A: Its value is 0.05667 mm.

Q: And the “distance the wound edge had moved forward” value ([4]; 0.111 uM, 6 hrs)?
A: Its value is 0.06833 mm.

Q: What about the “distance the cells have grown out” value ([4]; 250 nM, 2 hrs) of the same compound?
A: The value was 0.025 millimeters.

Q: And the “distance the cells have grown out” value ([4]; 250 nM, 4 hrs)?
A: Its value is 0.03667 millimeters.

Q: What about the “distance the cells have grown out” value ([4]; 250 nM, 6 hrs) of the same compound?
A: The value was 0.05167* millimeters.

Q: And the “distance the cells have grown out” value ([4]; 250 nM, 24 hrs)?
A: Its value is 0.1117* millimeters.

Q: And the “distance the wound edge had moved forward” value ([4]; 0.333 uM, 2 hrs)?
A: Its value is 0.05 mm.

Q: And the “distance the wound edge had moved forward” value ([4]; 0.333 uM, 4 hrs)?
A: Its value is 0.085 mm.

Q: And the “distance the wound edge had moved forward” value ([4]; 0.333 uM, 6 hrs)?
A: Its value is 0.1333 mm.

Q: What about the “HBEC migration across the wound, in words” value ([4]; relative to no treatment control) of the same compound?
A: Its value is “migrate faster”.

Q: What about the “inorganic phosphate detected, oriPTEN + 1720, Average” value (GST-PTEN fusion protein; PTEN in solution) of the same compound?
A: Its value is 0.1028 nmol.

Q: What about the “inorganic phosphate detected, oriPTEN + 1720” value (GST-PTEN fusion protein; PTEN in solution, single determinations) of the same compound?
A: The value was 0.0995 nmol and 0.106 nmol.

Q: And the “inorganic phosphate detected, PTEN gel/1720 bound, Average” value (GST-PTEN fusion protein; immobilized PTEN pretreated 1 hour, washed)?
A: The value was 0.1142 nmol.

Q: What about the “inorganic phosphate detected, PTEN gel/1720 bound” value (GST-PTEN fusion protein; immobilized PTEN pretreated 1 hour, washed, single determinations) of the same compound?
A: Its value is 0.1191 nmol and 0.1093 nmol.

Q: What about the pIC50 [5, 7] of the same compound?
A: Its pIC50 is 5.15.

Q: How did the activity at 5 µM (mouse aortic ring; read-out: Branch (% of control)) turn out when `CC(C)(C)C(=O)Nc1ccc2c(c1)C(=O)C(=O)c1ccccc1-2` [SF1670-000, N-(9,10-Dioxo-9,10-dihydro-phenanthren-2-yl)-2,2-dimethyl-propionamide] was run?
A: Its activity at 5 µM is 126 to 166%.

Q: And the activity at 5 µM (mouse aortic ring; read-out: Stem (% of control))?
A: Its activity at 5 µM is 107 to 196%.

Q: What about the “concentration of maximal induction of migration” value (U87MG PTEN wt) of the same compound?
A: Its value is 30 nM.

Q: And the “migration number, Average” value (MEF PTEN null)?
A: Its value is 47.20 and 49.30 and 49.90 and 47.60 and 45.90.

Q: What about the pIC50 ([1]; NCI-H1299, 2 h) of the same compound?
A: Its pIC50 is 5.00.

Q: What about the “migration number, Average” value (MEF PTEN wt) of the same compound?
A: The value was 16.00 and 22.60 and 31.20 and 28.70 and 26.80.

Q: What about the inhibition at 250 µM (PTEN [6]) of the same compound?
A: Its inhibition at 250 µM is 100%.

Q: And the “integrin induced activation of RAC to its GTP bound state” value (RAC1-GTP)?
A: The value was “augmented integrin induced activation of RAC”.

Q: And the “migration number, Average” value (U87MG PTEN null)?
A: Its value is 60.90 and 57.20.

Q: What about the pIC50 (PTEN [2]) of the same compound?
A: Its pIC50 is 5.70.

Q: What about the pIC50 (PTP1B) of the same compound?
A: The pIC50 was 4.77.

Q: What about the pIC50 ([3]; 2 h) of the same compound?
A: Its pIC50 is 5.30.

Q: And the “HBEC migration across the wound, in words” value [4]?
A: The value was “migrate faster”.

Q: And the pIC50 ([5]; 2 h)?
A: Its pIC50 is 4.36.
